In patent publication US12595239B2, “Substituted isoxazoline derivatives” (BASF SE, priority 2021, dated 2026):

What was measured:
Type in all cases: in vivo
Dichromothrips corbetti = test: B.7 Orchid Thrips, floral-immersion test; settings: adult thrips, 72 hours after treatment, read-out: mortality in comparison with untreated controls
Protocol: Dichromothrips corbetti adults used for bioassay were obtained from a colony maintained continuously under laboratory conditions. For testing purposes, the test compound was diluted in a 1:1 mixture of acetone:water (vol:vol), plus Kinetic at a rate of 0.01% v/v.
Thrips potency of each compound was evaluated by using a floral-immersion technique. Each orchid petal was dipped into treatment solution and allowed to dry in Petri dishes. Treated petals were placed into individual re-sealable plastic along with about 20 adult thrips. All test arenas were held under dark condition and a temperature of about 28° C. for duration of the assay. The percent mortality was recorded 72 hours after treatment.

Plutella xylostella = test: B.6 Diamond Back Moth, cabbage leaf disc dip test; settings: foliar, 3rd instar larvae, 72 hours after treatment, read-out: mortality in comparison with untreated controls
Protocol: The active compound was dissolved at the desired concentration in a mixture of 1:1 (vol:vol) distilled water:acetone. Surfactant (Kinetic) was added at a rate of 0.01% (vol/vol). The test solution was prepared at the day of use. Cabbage leaf discs (60 mm in diameter) were dipped in test solution and air-dried. Treated leaves were placed in petri dishes lined with moistened filter paper and inoculated with ten 3rd instar larvae. Mortality was recorded 72 hours after treatment. Feeding damages were also recorded using a scale of 0-100%.

Anthonomus grandis = test: B.1 Boll weevil (Anthonomus grandis), 96-well microtiter plate diet test; settings: 120 h, egg and larval mortality, 5 days, read-out: mortality in comparison with untreated controls
Protocol: For evaluating control of boll weevil, the test unit consisted of 96-well-microtiter plates containing an insect diet and 5-10 A. grandis eggs.
The compounds were formulated using a solution containing 75% v/v water and 25% v/v DMSO. Different concentrations of formulated compounds were sprayed onto the insect diet at 5 μl, using a custom-built micro atomizer, at two replications.
After application, microtiter plates were incubated at about 25±1° C. and about 75±5% relative humidity for 5 days. Egg and larval mortality were then visually assessed.

Spodoptera eridania = test: B.11 Southern Armyworm 2nd instar larvae, lima bean foliar spray test; settings: 96 h, 4 days after treatment, read-out: mortality in comparison with untreated controls
Protocol: The active compounds were formulated by a Tecan liquid handler in 100% cyclohexanone as a 10′000 ppm solution supplied in tubes. The 10′000 ppm solution was serially diluted in 100% cyclohexanone to make interim solutions. These served as stock solutions for which final dilutions were made by the Tecan in 50% acetone:50% water (v/v) into 10 or 20 ml glass vials. A nonionic surfactant (Kinetic®) was included in the solution at a volume of 0.01% (v/v). The vials were then inserted into an automated electrostatic sprayer equipped with an atomizing nozzle for application to plants/insects. Lima bean plants (variety Sieva) were grown 2 plants to a pot and selected for treatment at the 1st true leaf stage. Test solutions were sprayed onto the foliage by an automated electrostatic plant sprayer equipped with an atomizing spray nozzle. The plants were dried in the sprayer fume hood and then removed from the sprayer. Each pot was placed into perforated plastic bags with a zip closure. Ten to 11 armyworm larvae were placed into the bag and the bags zipped closed. Test plants were maintained in a growth room at about 25° C. and about 20-40% relative humidity for 4 days, avoiding direct exposure to fluorescent light (14:10 light:dark photo-period) to prevent trapping of heat inside the bags. Mortality and reduced feeding were assessed 4 days after treatment, compared to untreated control plants.

Bemisia argentifolii = test: B.12 Silverleaf Whitefly (adults), cotton plant spray test; settings: 72 h, 3 days after treatment, read-out: mortality in comparison with untreated controls
Protocol: The active compounds were formulated by a Tecan liquid handler in 100% cyclohexanone as a 10,000-ppm solution supplied in tubes. The 10,000-ppm solution was serially diluted in 100% cyclohexanone to make interim solutions. These served as stock solutions for which final dilutions were made by the Tecan in 50% acetone:50% water (v/v) into 5 or 10 ml glass vials. A nonionic surfactant (Kinetic®) was included in the solution at a volume of 0.01% (v/v). The vials were then inserted into an automated electrostatic sprayer equipped with an atomizing nozzle for application to plants/insects. Cotton plants at the cotyledon stage (one plant per pot) were sprayed by an automated electrostatic plant sprayer equipped with an atomizing spray nozzle. The plants were dried in the sprayer fume hood and then removed from the sprayer. Each pot was placed into a plastic cup and about 10 to 12 whitefly adults (approximately 3-5 days old) were introduced. The insects were collected using an aspirator and a nontoxic Tygon® tubing connected to a barrier pipette tip. The tip, containing the collected insects, was then gently inserted into the soil containing the treated plant, allowing insects to crawl out of the tip to reach the foliage for feeding. Cups were covered with a reusable screened lid. Test plants were maintained in a growth room at about 25° C. and about 20-40% relative humidity for 3 days, avoiding direct exposure to fluorescent light (14:10 light:dark photoperiod) to prevent trapping of heat inside the cup. Mortality was assessed 3 days after treatment, compared to untreated control plants.

Myzus persicae = test: B.3 Green Peach Aphid (mixed life stages), systemic artificial diet test; settings: 72 h, treated aphid diet, 3 days, read-out: mortality in comparison with untreated controls
Source text: For evaluating control of Green Peach Aphid through systemic means the test unit consisted of 96-well-microtiter plates containing liquid artificial diet under an artificial membrane. The compounds were formulated using a solution containing 75% v/v water and 25% v/v DMSO. Different concentrations of formulated compounds were pipetted into the aphid diet, using a custom-built pipette, at two replications. After application, 5-8 adult aphids were placed on the artificial membrane inside the microtiter plate wells. The aphids were then allowed to suck on the treated aphid diet and incubated at about 23±1° C. and about 50±5% relative humidity for 3 days. Aphid mortality and fecundity was then visually assessed.

Heliothis virescens = test: B.4 Tobacco Budworm, microtiter plate diet test; settings: 120 h, egg and larval mortality, 5 days, read-out: mortality in comparison with untreated controls
Protocol: For evaluating control of Tobacco Budworm, the test unit consisted of 96-well-microtiter plates containing an insect diet and 15-25 H. virescens eggs. The compounds were formulated using a solution containing 75% v/v water and 25% v/v DMSO. Different concentrations of formulated compounds were sprayed onto the insect diet at 10 μl, using a custom-built micro atomizer, at two replications. After application, microtiter plates were incubated at about 28±1° C. and about 80±5% relative humidity for 5 days. Egg and larval mortality was then visually assessed.

Aedes aegypti = test: whole plant or invertebrate; settings: 48 h, larval mortality, 2 days, read-out: mortality in comparison with untreated controls
Protocol: For evaluating control of Yellow Fever Mosquito, the test unit consisted of 96-well-microtiter plates containing 200 μl of tap water per well and 5-15 freshly hatched A. aegypti larvae. The active compounds were formulated using a solution containing 75% (v/v) water and 25% (v/v) DMSO. Different concentrations of formulated compounds or mixtures were sprayed onto the insect diet at 2.5 μl, using a custom-built micro atomizer, at two replications.
After application, microtiter plates were incubated at 28±1° C., 80±5% RH for 2 days. Larval mortality was then visually assessed.

O=C(Nc1ccc(F)c(NC(=O)C(F)F)c1F)c1cc(NC2=NOC(c3cc(Cl)cc(Cl)c3)(C(F)(F)F)C2)ccc1Cl (stereo not drawn) [I-6, 2-chloro-5-[[5-(3,5-dichlorophenyl)-5-(trifluoromethyl)-4H-isoxazol-3-yl]amino]-N-[3-[(2,2-difluoroacetyl)amino]-2,4-difluoro-phenyl]benzamide]
≥ 75%: mortality at 300 ppm (Dichromothrips corbetti) | mortality at 300 ppm (Plutella xylostella)

N#CC1(NC(=O)c2c(F)ccc(NC3=NOC(c4cc(Cl)cc(Cl)c4)(C(F)(F)F)C3)c2F)CC1 (stereo not drawn) [I-30, N-(1-cyanocyclopropyl)-3-[[5-(3,5-dichlorophenyl)-5-(trifluoromethyl)-4H-isoxazol-3-yl]amino]-2,6-difluoro-benzamide]
≥ 75%: mortality at 300 ppm (Dichromothrips corbetti) | mortality at 2500 ppm (Anthonomus grandis) | mortality at 300 ppm (Plutella xylostella) | mortality at 300 ppm (Spodoptera eridania)

O=C(NC1CN(S(=O)(=O)C(F)F)C1)c1cc(NC2=NOC(c3cc(Cl)c(F)c(Cl)c3)(C(F)(F)F)C2)ccc1Cl (stereo not drawn) [I-41, 2-chloro-5-[[5-(3,5-dichloro-4-fluoro-phenyl)-5-(trifluoromethyl)-4H-isoxazol-3-yl]amino]-N-[1-(difluoromethylsulfonyl)azetidin-3-yl]benzamide]
≥ 75%: mortality at 300 ppm (Dichromothrips corbetti) | mortality at 300 ppm (Plutella xylostella) | mortality at 300 ppm (Spodoptera eridania)

O=C(Nc1ccc(F)cc1F)c1cccc(NC2=NOC(c3cc(Cl)cc(Cl)c3)(C(F)(F)F)C2)c1F (stereo not drawn) [I-48, 3-[[5-(3,5-dichlorophenyl)-5-(trifluoromethyl)-4H-isoxazol-3-yl]amino]-N-(2,4-difluoro-phenyl)-2-fluoro-benzamide]
≥ 75%: mortality at 300 ppm (Dichromothrips corbetti) | mortality at 300 ppm (Plutella xylostella) | mortality at 300 ppm (Spodoptera eridania)

CC(C)(C#N)NC(=O)c1cc(NC2=NOC(c3cc(Cl)c(F)c(Cl)c3)(C(F)(F)F)C2)ccc1Cl (stereo not drawn) [I-58, 2-chloro-N-(1-cyano-1-methyl-ethyl)-5-[[5-(3,5-dichloro-4-fluoro-phenyl)-5-(trifluoromethyl)-4H-isoxazol-3-yl]amino]benzamide]
≥ 75%: mortality at 300 ppm (Dichromothrips corbetti) | mortality at 300 ppm (Plutella xylostella) | mortality at 300 ppm (Spodoptera eridania)

O=C(Nc1cnccc1F)c1cc(NC2=NOC(c3cc(Cl)c(F)c(Cl)c3)(C(F)(F)F)C2)ccc1Cl (stereo not drawn) [I-62, 2-chloro-5-[[5-(3,5-dichloro-4-fluoro-phenyl)-5-(trifluoromethyl)-4H-isoxazol-3-yl]amino]-N-(4-fluoro-3-pyridyl)benzamide]
≥ 75%: mortality at 300 ppm (Dichromothrips corbetti) | mortality at 300 ppm (Plutella xylostella)

CCOC(=O)N(C1=NOC(c2cc(Cl)cc(Cl)c2)(C(F)(F)F)C1)c1ccc(Cl)c(C(=O)N(C(=O)OCC)C2(C#N)CC2)c1 (stereo not drawn) [I-100, ethyl N-[4-chloro-3-[(1-cyanocyclopropyl)-ethoxycarbonyl-carbamoyl]-phenyl]-N-[5-(3,5-dichlorophenyl)-5-(trifluoromethyl)-4H-isoxazol-3-yl]carbamate]
≥ 75%: mortality at 300 ppm (Dichromothrips corbetti) | mortality at 300 ppm (Plutella xylostella) | mortality at 300 ppm (Spodoptera eridania) | mortality at 300 ppm (Bemisia argentifolii)

O=C(N[C@@H]1CON(CC(F)(F)F)C1=O)c1cc(NC2=NOC(c3cc(Cl)c(F)c(Cl)c3)(C(F)(F)F)C2)ccc1Cl (stereo partly drawn) [I-114, 2-chloro-5-[[5-(3,5-dichloro-4-fluoro-phenyl)-5-(trifluoromethyl)-4H-isoxazol-3-yl]amino]-N-[(4R)-3-oxo-2-(2,2,2-trifluoroethyl)isoxazolidin-4-yl]benzamide]
≥ 75%: mortality at 300 ppm (Dichromothrips corbetti) | mortality at 300 ppm (Plutella xylostella) | mortality at 300 ppm (Spodoptera eridania) | mortality at 300 ppm (Bemisia argentifolii)

CN(C1=NOC(c2cc(Cl)cc(Cl)c2)(C(F)(F)F)C1)c1ccc(Cl)c(C(=O)NC2(c3cnn(C)c3)CC2)c1 (stereo not drawn) [I-125, 2-chloro-5-[[5-(3,5-dichlorophenyl)-5-(trifluoromethyl)-4H-isoxazol-3-yl]-methyl-amino]-N-[1-(1-methylpyrazol-4-yl)cyclopropyl]benzamide]
≥ 75%: mortality at 300 ppm (Dichromothrips corbetti) | mortality at 2500 ppm (Anthonomus grandis) | mortality at 300 ppm (Plutella xylostella) | mortality at 2500 ppm (Myzus persicae) | mortality at 2500 ppm (Heliothis virescens)

O=C(NC1(c2ccnnc2)CC1)c1cc(NC2=NOC(c3cc(Cl)cc(Cl)c3)(C(F)(F)F)C2)ccc1Cl (stereo not drawn) [I-162, 2-chloro-5-[[5-(3,5-dichlorophenyl)-5-(trifluoromethyl)-4H-isoxazol-3-yl]amino]-N-(1-pyridazin-4-ylcyclopropyl)benzamide]
≥ 75%: mortality at 2500 ppm (Anthonomus grandis) | mortality at 300 ppm (Plutella xylostella) | mortality at 2500 ppm (Aedes aegypti) | mortality at 300 ppm (Spodoptera eridania) | mortality at 300 ppm (Bemisia argentifolii)

N#CC1(NC(=O)c2cc(S(=O)(=O)C3=NOC(c4cc(Cl)cc(Cl)c4)(C(F)(F)F)C3)ccc2Cl)CC1 (stereo not drawn) [II-3, 2-chloro-N-(1-cyanocyclopropyl)-5-[[5-(3,5-dichlorophenyl)-5-(trifluoromethyl)-4H-isoxazol-3-yl]sulfonyl]benzamide]
≥ 75%: mortality at 300 ppm (Plutella xylostella)
